Results on twelve compounds are retold here after patent US20250188110A1, “SPECIFIC SMALL MOLECULE INHIBITORS THAT BLOCK KMT9 METHYLTRANSFERASE ACTIVITY AND FUNCTION” (ALBERT-LUDWIGS-UNIVERSITÄT FREIBURG, priority 2021, published 2025).

Usually IC50 stands for the concentration needed to halve the response being measured. A high value points to a need for much substance.

Read-outs that look alike come from different tables or passages of the source. Bounds are passed on as bounds.

Test [1] addresses T1, KMT9 (Homo sapiens, UniProt Q9Y5N5).
T1 sequence (Q9Y5N5 1-214): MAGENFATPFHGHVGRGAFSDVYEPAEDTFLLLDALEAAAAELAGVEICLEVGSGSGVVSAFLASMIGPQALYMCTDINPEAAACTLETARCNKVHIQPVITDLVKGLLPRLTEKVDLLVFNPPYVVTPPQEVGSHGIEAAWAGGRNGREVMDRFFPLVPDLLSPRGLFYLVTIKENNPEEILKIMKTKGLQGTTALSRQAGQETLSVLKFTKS
T1 sequence (Q9UI30 1-120 isoform Q9UI30-2 partner): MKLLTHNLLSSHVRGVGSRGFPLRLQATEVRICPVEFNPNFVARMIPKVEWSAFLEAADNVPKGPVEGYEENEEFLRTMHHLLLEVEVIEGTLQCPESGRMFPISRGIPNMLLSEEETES
The test is described as follows: Microscale thermophoresis (MST) KMT9 binding. As for the experimental part:
To determine the binding affinity of the compounds according to the present invention and KMT9, microscale thermophoresis (MST) analysis was performed with a NanoTemper Monolith NT.115 instrument (NanoTemper Technologies GmbH). KMT9 was labelled with a RED-Tris-NTA labelling kit (NanoTemper Technologies GmbH) based on the manufacturer's instructions. Buffer including 25 mM HEPES (pH 7.5), 100 mM NaCl, 1 mM DTT and 0.05% Tween was used for the reaction buffer. Varying concentrations of the tested compounds of formula (I) as indicated in Table 1 were titrated against His-tag labelled KMT9 proteins (20 nM). Samples were loaded into standard Capillaries (NanoTemper Technologies GmbH) and MST measurements were performed using 40% MST power and 100% LED power. For each set of binding experiments, MST measurement was carried out with Binding Affinity module in MO.Control program under Nano-RED Excitation. Datasets were processed with the MO.Affinity Analysis software (NanoTemper Technologies GmbH).
For the results of the microscale thermophoresis (MST) assay shown as “MST” in Table 1, “A” represents a Kd of equal to or less than 10 nM (Kd≤10 nM); “B” represents a Kd of greater than 10 nM and equal to or less than 100 nM (10 nM<Kd<100 nM); “C” represents a Kd of greater than 100 nM and equal to or less than 1000 nM (100 nM<Kd ≤ 1000 nM); “D” represents a Kd of greater than 1000 nM (1000 nM<Kd).

Test [2] has as its target T1, KMT9. In words: KMT9 thermal shift assay (SyproOrange). The test is classed as binding. Particulars: 500 µM compound. As to the method: The assay was carried out in 96-well Hard-Shell PCR plates (Bio-Rad Laboratories Inc.). Assay buffer consisted of 50 mM BTP, 1 mM MgCl2 and 1 mM DTT at a pH of 8.5 (adjusted using 1 M HCl and 1 M NaOH). 20X inhibitor stock (in DMSO), 2X enzyme stock and 4X SyproOrange (SO) stock (both in assay buffer) were prepared. 1 μL of 20X compound, 4 μL of assay buffer, 10 μL of 2X KMT9 and 5 μL of 4X SO were pipetted. For the no-compound control, 20X inhibitor stock was replaced by DMSO. The final volume was 20 μL. The plate was spun down at 700 rpm for 1 min using a Hettich UNIVERSAL 320 centrifuge and incubated at 25° C., shaking at 600 rpm. After incubation, the plate was spun down for 1 min at 700 rpm and measurement was conducted using a CFX96 Touch Real-Time PCR Detection System (Bio-Rad Laboratories Inc.). The plate was equilibrated at 20° C. for 4 min and then heated stepwise at a rate of 1° C. per 15 s until 95° C. After every step, fluorescence was measured in FRET mode. Calculation of melting points was conducted by a Boltzman sigmoidal model using GraphPad Prism 7.0.
For the results of the thermal shift assay shown as “Thermal shift” in Table 1, “++++” represents a ΔTm of greater 20 K, “+++” represents a ΔTm of greater than 15 K and less than or equal to 20 K (15 K<ΔTm≤20 K); “++” represents a ΔTm of greater than 10 K and less than or equal to 15 K (10 K<ΔTm ≤ 15 K); “+” represents a ΔTm of equal to or less than 10 K (ΔTm≤10 K).

Test [3] concerns the target T1, KMT9. The test is described as follows: KMT9 methyltransferase inhibition assay, 3H-SAM scintillation (entries 1-154). The settings on record: entries 1-154: 3H-SAM assay, 25 nM KMT9, 5 μM ETF1. The test is classed as biochemical. As to the method: The assay was carried out in 0.5 mL Eppendorf tubes in duplicates. Assay buffer consisted of 50 mM BTP, 1 mM MgCl2, 1 mM DTT and 0.01% Triton-X^100 at a pH of 8.5 (adjusted using 1 M HCl and 1 M NaOH). 20X inhibitor stock (in DMSO), 2X enzyme stock and 4X substrate mix (both in assay buffer) were prepared. The substrate mix consisted of Tritium-labelled S-adenosylmethionine (3H-SAM), S-adenosylmethionine (SAM) and eukaryotic peptide chain release factor subunit1 (Homo sapiens, residues 140-275)(ETF1). Final assay concentrations were set to 25 nM KMT9, 0.3 μM 3H-SAM, 0.7 µM SAM and 5 μM ETF1. […] 5 μL of 4x substrate mix was added to initiate the reaction. The final reaction volume was 20 μL. For the positive control, the compound of formula (I) was replaced by DMSO; for the negative control, the compound of formula (I) was replaced by DMSO and KMT9 was replaced by assay buffer. The reaction mix was incubated in an Eppendorf thermomixer comfort at 30° C. for 2 h, shaking at 300 rpm. The reaction was quenched using 5 μL 50% trichloroacetic acid (TCA) and incubated at 25° C. for 5 minutes. 22 μL of the mixture was transferred into 96-well MultiScreen@HTS FB filter plates (Merck KGaA, Darmstadt, Germany) and washed four times with 10% TCA and two times with 100% ethanol. The plate was dried overnight, the filters were transferred into individual 6 mL Pony Vials (Perkin Elmer Inc, Waltham, MA, USA) and incubated in 3 mL of Ultima Gold scintillation cocktail (Perkin Elmer Inc, Waltham, MA, USA) for 30 minutes. The scintillation signal was measured for 3x 1 min using TriCarb 2910 TR (Perkin Elmer) scintillation counter in 3H CPM mode (LL: 0, UL: 18.6). Inhibition was calculated using the following formula: […]
With xc: signal of compound, Xpos: mean signal of positive control, Xneg: mean signal of negative control. Data fitting was carried out by GraphPad 7.0 using nonlinear fit ([Inhibitor]vs. response-variable slope (four parameters)).
For the results of the methyltransferase inhibition assay shown as “Inhibition” in Table 1, “I” represents an IC50 less than 0.1 μM, “II” represents an IC50 equal or higher than 0.1 μM and less than 1 μM, “III” represents an IC50 equal or higher than 1 µM and less than 10 µM and “IV” represents an IC50 equal or higher than 10 µM

Where [4] appears, read: microscale thermophoresis, His-tag labelled KMT9 (20 nM), read-out: MST.
Setting [5] is: ΔTm, 2 μM KMT9, 5X SO, read-out: Thermal shift.
The mark [6] stands for this setting: 2 μM KMT9, read-out: Thermal shift (ΔTm).

In the case of `CNc1ncnc2c1ccn2[C@@H]1C[C@H](CNCCCNCCc2ccc(Oc3ccc(Cl)cc3)c(F)c2)[C@@H](O)[C@H]1O` [370 (274), (1S,2R,3R,5R)-3-(((3-((4-(4-chlorophenoxy)-3-fluorophenethyl)amino)propyl)amino)methyl)-5-(4-(methylamino)-7H-pyrrolo[2,3-a]pyrimidin-7-yl) cyclopentane-1,2-diol], the Kd in test [1] (setting [4]) was greater than 1000 nM. The ΔTm at 500 µM in test [2] (setting [5]) was in the range of 10 to 15 °C. Further, in test [3], the IC50 fell in the range of 1000 to 10000 nM.
Regarding `Nc1ncnc2c1c(Br)cn2[C@@H]1C[C@H](CNCCCNCCc2ccccc2F)[C@@H](O)[C@H]1O` [338 (242), (1R,2S,3R,5R)-3-(4-amino-5-bromo-7H-pyrrolo[2,3-d]pyrimidin-7-yl)-5-(((3-((2-fluorophenethyl)amino)propyl)amino)methyl) cyclopentane-1,2-diol], the Kd in test [1] (setting [4]) is 10 to 100 nM. In test [2] (setting [5]), the ΔTm at 500 µM was in the range of 15 to 20 °C. Also, the IC50 in test [3] lay in the range of 100 to 1000 nM.
`CNc1ncnc2c1ccn2[C@@H]1C[C@H](CN(CCCNCCc2ccccc2)c2cncs2)[C@@H](O)[C@H]1O` [439 (311), (1R,2S,3R,5R)-3-(4-(Methylamino)-7H-pyrrolo[2,3-d]pyrimidin-7-yl)-5-(((3-(phenethylamino)propyl)(thiazol-5-yl)amino)methyl) cyclopentane-1,2-diol]: the Kd in test [1] (setting [4]) is greater than 1000 nM. The ΔTm at 500 µM in test [2] (setting [5]) was no more than 10 °C. This compound displayed an IC50 in test [3] of 1000 to 10000 nM.
The matching figures for `CS(=O)(=O)n1ccc(-c2cn([C@@H]3C[C@H](CNCCCNCCc4ccccc4)[C@@H](O)[C@H]3O)c3ncnc(N)c23)n1` [Compound 600, (1R,2S,3R,5R)-3-(4-Amino-5-(1-(methylsulfonyl)-1H-pyrazol-3-yl)-7H-pyrrolo[2,3-d]pyrimidin-7-yl)-5-(((3-(phenethylamino)propyl)amino)methyl)cyclopentane-1,2-diol]: no more than 10 nM, 15 to 20 °C and less than 100 nM.
The matching figures for `CCC(C)c1cn([C@@H]2C[C@H](CNCCCNCCc3ccccc3)[C@@H](O)[C@H]2O)c2ncnc(N)c12` (stereo partly drawn) [469 (343), (1R,2S,3R,5R)-3-(4-Amino-5-(sec-butyl)-7H-pyrrolo[2,3-d]pyrimidin-7-yl)-5-(((3-(phenethylamino)propyl)amino)methyl) cyclopentane-1,2-diol]: 100 to 1000 nM, 10 to 15 °C and 1000 to 10000 nM.
Regarding `O[C@@H]1[C@H](O)[C@@H]([C@@H]2CCCNC2)C[C@H]1n1cc(-c2nccs2)c2cncnc21` [Compound 401, (1S,2R,3R,5R)-3-((S)-piperidin-3-yl)-5-(5-(thiazol-2-yl)-7//pyrrolo[2,3-a]pyrimidin-7-yl) cyclopentane-1,2-diol], the ΔTm at 500 µM in test [2] (setting [6]) is no more than 10 °C.
On to `Nc1nc(Cl)nc2c1c(-c1ccn(S(=O)(=O)c3ccccc3)n1)cn2[C@@H]1C[C@H](C2CCN(CC3CC3)CC2)[C@@H](O)[C@H]1O` [Compound 520, (1R,2S,3R,5R)-3-{4-Amino-5-[1-(benzenesulfonyl)pyrazol-3-yl]-2-chloropyrrolo[2,3-d]pyrimidin-7-yl}-5-[1-(cyclopropylmethyl)piperidin-4-yl]cyclopentane-1,2-diol], for which the Kd in test [1] (His-tag labelled KMT9 20 nM, read-out: MST (Kd)) was no more than 10 nM. Further, in test [2] (setting [6]), the ΔTm at 500 µM was greater than 20 °C.
As to `CNc1ncnc2c1ccn2[C@@H]1C[C@H]([C@@H]2C[C@@H]2CCCNCCc2ccccc2)[C@@H](O)[C@H]1O` [Compound 683, (1R,2S,3R,5R)-3-(4-(methylamino)-7H-pyrrolo[2,3-d]pyrimidin-7-yl)-5-((1R,2S)-2-(3-(phenethylamino)propyl)cyclopropyl)cyclopentane-1,2-diol], the Kd in test [1] (setting [4]) was greater than 1000 nM. In addition, the ΔTm at 500 µM in test [2] (setting [5]) is no more than 10 °C.
As to `O[C@@H]1[C@H](O)[C@@H]([C@H]2CCCNC2)C[C@H]1n1ccc2c(C(F)F)ncnc21` [Compound 403, (1R,2S,3R,5R)-3-(4-(difluoromethyl)-7H-pyrrolo[2,3-d]pyrimidin-7-yl)-5-((R)-piperidin-3-yl) cyclopentane-1,2-diol], in test [2] (setting [6]), the ΔTm at 500 µM is no more than 10 °C.
For `O[C@@H]1[C@H](O)[C@@H]([C@H]2CCCNC2)C[C@H]1n1cc(-c2nccs2)c2cncnc21` [Compound 402, (1S,2R,3R,5R)-3-((R)-piperidin-3-yl)-5-(5-(thiazol-2-yl)-7H-pyrrolo[2,3-a]pyrimidin-7-yl) cyclopentane-1,2-diol], the ΔTm at 500 µM in test [2] (setting [6]) was no more than 10 °C.
`Nc1ncnc2c1ncn2[C@@H]1O[C@H](C(=O)NCCCNCCc2ccc3ccccc3c2)[C@@H](O)[C@H]1O` [688 (222), (2S,3S,4R,5R)-5-(6-amino-9H-purin-9-yl)-3,4-dihydroxy-N-(3-((2-(naphthalen-2-yl)ethyl)amino)propyl) tetrahydrofuran-2-carboxamide] displayed an IC50 in test [3] greater than 10000 nM.
Consider `Nc1ncnc2c1c(-c1ccccc1)cn2[C@@H]1C[C@H](CNCCCNCCc2ccc(F)cc2)[C@@H](O)[C@H]1O` [340 (244), (1R,2S,3R,5R)-3-(4-amino-5-phenyl-7H-pyrrolo[2,3-d]pyrimidin-7-yl)-5-(((3-((4-fluorophenethyl)amino)propyl)amino)methyl) cyclopentane-1,2-diol], for which the Kd in test [1] (setting [4]) was 10 to 100 nM. The compound also yielded a 50% inhibitory concentration (IC50) in test [3] of 100 to 1000 nM.
